From US5281603A, “Angiotensin II receptor blocking 2,3,6 substituted quinazolinones” (American Cyanamid Company, priority 1993, dated 1994)
Where “and” joins values, the source holds several entries; their conditions need not be identical. Equal values may be shown once.

System: Angiotensin II vasopressor response
Assay: AII challenge: antagonism of angiotensin II vasopressor response in conscious spontaneously hypertensive rats
Format: in vivo, rat (Male Okamoto-Aoki SHR)
Settings: 3 mg/kg I.V.; for % Inhibition / Average Change: SHR n=2; for Response After AII / Change / Control Before AII: individual SHR
Source text: By administering a compound of this invention to a rat, and then challenging with angiotensin II, a blockage of the vasopressor response is realized.
Conscious Male Okamoto-Aoki SHR, 16-20 weeks old, weighing approximately 330 g are purchased from Charles River Labs (Wilmington, Mass.). Conscious rats are restrained in a supine position with elastic tape. The area at the base of the tail is locally anesthetized by subcutaneous infiltration with 2% procaine. The ventral caudal artery and vein are isolated, and a cannula made of polyethylene (PE) 10-20 tubing (fused together by heat) is passed into the lower abdominal aorta and vena cava, respectively. The cannula is secured, heparinized (1,000 I.U./ml), sealed and the wound is closed. The animals are placed in plastic restraining cages in an upright position. The cannula is attached to a Statham P23Db pressure transducer, and pulsatile blood pressure is recorded to 10-15 minutes with a Gould Brush recorder. (Chan et al., (Drug Development Res., 18:75-94, 1989).
Angiotensin II (human sequence, Sigma Chem. Co., St. […] Then a test compound, vehicle or a known angiotensin II antagonist is administered i.v., i.p. or orally to each set of rats. The two doses of angiotensin II are given to each rat again at 30, 60, 90, 120, 180, 240 and 300 minutes post dosing the compound or vehicle. The vasopressor response of angiotensin II is measured for the increase in systolic blood pressure in mmHg. The percentage of antagonism or blockade of the vasopressor response of angiotensin II by a compound is calculated using the vasopressor response (increase in systolic blood pressure) of angiotensin II of each rat predosing the compound as 100%. A compound is considered active if at 30 mg/kg i.v. it antagonized at least 50% of the response.

[1] = AII 0.01 mcg/kg IV (so in the source), 60 min post dose
[2] = AII 0.01 mcg/kg IV (so in the source), 90 min post dose
[3] = AII 0.05 mcg/kg IV, 30 min post dose
[4] = AII 0.05 mcg/kg IV, 60 min post dose
[5] = AII 0.05 mcg/kg IV, 90 min post dose
[6] = AII 0.05 mcg/kg IV, 120 min post dose
[7] = AII 0.05 mcg/kg IV, 180 min post dose
[8] = AII 0.05 mcg/kg IV, 240 min post dose
[9] = AII 0.05 mcg/kg IV, 300 min post dose
[10] = AII 0.1 mcg/kg IV, 30 min post dose
[11] = AII 0.1 mcg/kg IV, 120 min post dose
[12] = AII 0.1 mcg/kg IV, 180 min post dose
[13] = AII 0.1 mcg/kg IV, 240 min post dose
[14] = AII 0.1 mcg/kg IV, 300 min post dose
[15] = AII 0.01 mcg/kg IV (so in the source), 60 min post dose, 3 mg/kg
[16] = AII 0.01 mcg/kg IV (so in the source), 90 min post dose, 3 mg/kg
[17] = AII 0.05 mcg/kg IV, 30 min post dose, 3 mg/kg
[18] = AII 0.05 mcg/kg IV, 60 min post dose, 3 mg/kg
[19] = AII 0.05 mcg/kg IV, 90 min post dose, 3 mg/kg
[20] = AII 0.05 mcg/kg IV, 120 min post dose, 3 mg/kg
[21] = AII 0.05 mcg/kg IV, 180 min post dose, 3 mg/kg
[22] = AII 0.05 mcg/kg IV, 240 min post dose, 3 mg/kg
[23] = AII 0.05 mcg/kg IV, 300 min post dose, 3 mg/kg
[24] = AII 0.1 mcg/kg IV, 30 min post dose, 3 mg/kg
[25] = AII 0.1 mcg/kg IV, 120 min post dose, 3 mg/kg
[26] = AII 0.1 mcg/kg IV, 180 min post dose, 3 mg/kg
[27] = AII 0.1 mcg/kg IV, 240 min post dose, 3 mg/kg
[28] = AII 0.1 mcg/kg IV, 300 min post dose, 3 mg/kg

CCCCc1nc2ccc([C@@]3(C)NN[C@@H]4C(=O)N(C)C(=O)[C@@H]43)cc2c(=O)n1Cc1ccc(-c2ccccc2-c2nnn[nH]2)cc1 (relative stereo) [Example 10, (3-alpha,3aalpha,6aalpha)-3-[2-butyl-3,4-dihydro-4-oxo-3-[[2'-(1H-tetrazol-5-yl)-[1,1'-biphenyl]-4-yl]methyl]-6-quinazolinyl]-2,3,3a,6a-tetrahydro-3,5-dimethyl-pyrrolo[3,4-c]pyrazole-4,6(1H,5H)-dione]
% Inhibition [1]: 53% | Average Change [1]: 22.5 mmHg | % Inhibition [2]: 47% | Average Change [2]: 25 mmHg | % Inhibition [3]: 66% | Average Change [3]: 16 mmHg | % Inhibition [4]: 68% | Average Change [4]: 15 mmHg | % Inhibition [5]: 63% | Average Change [5]: 17.5 mmHg | % Inhibition [6]: 47% | Average Change [6]: 25 mmHg | % Inhibition [7]: 47% | Average Change [7]: 25 mmHg | % Inhibition [8]: 47% | Average Change [8]: 25 mmHg | % Inhibition [9]: 32% | Average Change [9]: 32.5 mmHg | % Inhibition [10]: 53% | Average Change [10]: 22.5 mmHg | % Inhibition [11]: 47% | Average Change [11]: 25 mmHg | % Inhibition [12]: 37% | Average Change [12]: 30 mmHg | % Inhibition [13]: 40% | Average Change [13]: 28.5 mmHg | % Inhibition [14]: 23% | Average Change [14]: 36.5 mmHg | Response After AII [1]: 250 mmHg | Change [15]: 25 mmHg and 20 mmHg | Control Before AII [15]: 225 mmHg and 230 mmHg | Change [2]: 25 mmHg | Control Before AII [16]: 225 mmHg and 230 mmHg | Response After AII [16]: 250 mmHg and 255 mmHg | Change [17]: 20 mmHg and 12 mmHg | Control Before AII [17]: 220 mmHg and 245 mmHg | Response After AII [17]: 240 mmHg and 257 mmHg | Change [4]: 15 mmHg | Control Before AII [18]: 220 mmHg and 225 mmHg | Response After AII [18]: 235 mmHg and 240 mmHg | Change [19]: 20 mmHg and 15 mmHg | Control Before AII [19]: 215 mmHg and 225 mmHg | Response After AII [19]: 235 mmHg and 240 mmHg | Change [20]: 20 mmHg and 30 mmHg | Control Before AII [20]: 215 mmHg and 225 mmHg | Response After AII [20]: 235 mmHg and 255 mmHg | Control Before AII [7]: 210 mmHg | Change [21]: 20 mmHg and 30 mmHg | Response After AII [21]: 230 mmHg and 240 mmHg | Change [8]: 25 mmHg | Control Before AII [22]: 210 mmHg and 230 mmHg | Response After AII [22]: 235 mmHg and 255 mmHg | Change [23]: 30 mmHg and 35 mmHg | Control Before AII [23]: 210 mmHg and 225 mmHg | Response After AII [23]: 240 mmHg and 260 mmHg | Change [24]: 20 mmHg and 25 mmHg | Control Before AII [24]: 225 mmHg and 240 mmHg | Response After AII [24]: 245 mmHg and 265 mmHg | Change [11]: 25 mmHg | Control Before AII [25]: 220 mmHg and 230 mmHg | Response After AII [25]: 245 mmHg and 255 mmHg | Change [26]: 40 mmHg and 20 mmHg | Control Before AII [26]: 210 mmHg and 235 mmHg | Response After AII [26]: 250 mmHg and 255 mmHg | Change [27]: 32 mmHg and 25 mmHg | Control Before AII [27]: 210 mmHg and 235 mmHg | Response After AII [27]: 242 mmHg and 260 mmHg | Change [28]: 40 mmHg and 33 mmHg | Control Before AII [28]: 210 mmHg and 227 mmHg | Response After AII [28]: 250 mmHg and 260 mmHg
